Data from US20250289774A1, “[…] OF A CANNABIDIOL-LIKE CANNABINOID” (Jazz Pharmaceuticals Research UK Limited, priority 2022, published 2025).

Experiments:
[1] = tested on: mouse model of generalised seizure; details: data of PCT/GB2020/052944; cited from earlier work
[2] = Stability of 6-OH CBDV Form A to compression (XRPD after pressing); format: physicochemical; details: ~60 mg in KBr pellet die, compressed overnight at ~370 MPa, analysed immediately by XRPD
Protocol: (§1) XRPD analyses were performed using a Panalytical Empyrean diffractometer equipped with a Cu X-ray tube and a PIXcel 1 D-Medipix3 detector system. The samples were analysed at ambient temperature in transmission mode and held between low density PVC films. The XRPD program parameters were: range 3-40° 2θ or 4-40° 2θ, step size 0.01313°, counting time 23 sec, ˜5 min run time. Samples were spun at 60 rpm during data collection. XRPD patterns were sorted, manipulated using HighScore Plus v4.9 software.
Crystalline Form A material (˜60 mg) was added to a KBr pellet die and compressed overnight at ˜370 MPa using a hydraulic press. The resultant solid disc was removed from the press and immediately analysed by XRPD.

[3] = Stability of Form A to ball milling (XRPD after milling); format: physicochemical; details: 6 minutes at 25 Hz
Protocol: as §1
A ball mill was used to mimic the effects of grinding that would be experienced during formulation steps such as dry blending and wet granulation.
Approximately 45 mg of crystalline Form A material was added to a milling chamber with an agate milling ball. Using a Retsch MM200 mixer mill, the material was milled for 6 minutes at a frequency of 25 Hz. Periodically, the milling was stopped and powder that adhered to the milling chamber was scraped down. The resultant milled material was analysed using XRPD. Samples were also milled with addition of a small amount of solvent (˜10 μL).

| SMILES | Anticonvulsant activity [1] | Solid form after compression (XRPD) [2] | Output Form after milling (XRPD) ([3]; dry ball milling, no solvent) | Output Form after milling (XRPD) ([3]; wet ball milling, water (~10 μL)) |
| --- | --- | --- | --- | --- |
| C=C(C)[C@@H]1C[C@H](O)C(C)=C[C@H]1c1c(O)cc(CCC)cc1O [6-OH CBDV, 6-hydroxy cannabidivarin] | displays anticonvulsant activity |  |  |  |
| C=C(C)[C@@H]1C[C@H](O)C(C)=C[C@H]1c1c(O)cc(CCC)cc1O [Form A, 6-hydroxy cannabidivarin] |  | remained as Form A | no change in form | no change in form |
